Values quoted from earlier work as cited in patent EP4520318A1, “TRANSDERMAL THERAPEUTIC SYSTEM OF LUMATEPERONE” (Luye Pharma Switzerland AG, priority 2023, dated 2025).

Details: oral administration

oral bioavailability: about 4.4%
SMILES: CN1CCN2c3c(cccc31)[C@@H]1CN(CCCC(=O)c3ccc(F)cc3)CC[C@@H]12 [lumateperone, 1-(4-fluoro-phenyl)-4-((6bR, 10aS)-3-methyl-2,3,6b,9,10,10a-hexahydro-1H,7H-pyrido[3',4':4,5]pyrrolo[1,2,3-de]quinoxalin-8-yl)-butan-1-one]
